Measured values from US6639058B2, “Method of dissolving preformed β-amyloid peptide fibrils in vitro by poly-lysine” (priority 2001, dated 2003).

What was measured:
[1] = target: T1, preformed βA25-35 fibrils (Homo sapiens, UniProt P05067); test: Electron microscopy analysis of the ability to dissolve preformed βA fibrils in vitro (βA25-35); type: biochemical; conditions: for ability to dissolve preformed βA25-35 fibrils: 10 μl tested compound mixed with 10 μl preformed fibrils, negative-staining electron microscopy immediately performed, Poly-L-Lysine 25 mg/ml, Polyethylene glycol 10 mg/ml, L-Lysine 1 M
T1 construct: 0.5 mg/ml for βA25-35 prepared in water or in PBS
Method: (§1) Aliquots of βA at a concentration of 1.5 mg/ml for both βA1-40 and βA1-42 and 0.5 mg/ml for βA25-35 prepared in water or in PBS, were incubated for 5 days at 37° C. At the end of the incubation period, 10 μl of βA solution were mixed with 10 μl of water for negative-staining electron microscopy analysis.
(§2) All compounds used to test the ability to dissolve preformed βA fibrils in vitro: Poly-L-Lysine, Polyethylene glycol and L-Lysine, were prepared in water and at a concentration of 25 mg/ml, 10 mg/ml and 1 M respectively. Then, 10 μl of tested compound were mixed with 10 μl of water for negative-staining electron microscopy analysis.
(§3) In order to evaluate the ability of compounds to dissolve preformed βA fibrils in vitro, 10 μl of tested compound were mixed with 10 μl of preformed βA fibrils and the negative-staining electron microscopy analysis was immediately performed.
(§4) Samples of tested compound, βA with or without tested compound were placed on carbon formar-coated 200-mesh nickel grids. The grids were stained for 5 minutes with 1% phosphotungstic acid and visualized on a Philips EM 401 electron microscope at 80 kV.

preformed βA1-40 fibrils = target: T2, preformed βA1-40 fibrils (Homo sapiens, UniProt P05067); test: Electron microscopy analysis of the ability to dissolve preformed βA fibrils in vitro (βA1-40); type: biochemical; conditions: data not shown
T2 construct: 1.5 mg/ml for both βA1-40 and βA1-42
Method: as §1, §2, §3, §4

T2 sequence (P05067 672-711): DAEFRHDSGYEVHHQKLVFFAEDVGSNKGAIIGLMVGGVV

Compound	ability to dissolve preformed βA25-35 fibrils [1]	potential to dissolve preformed βA1-40 fibrils (preformed βA1-40 fibrils)	speed of efficiency in dissolving preformed βA fibrils ([1]; in vitro, electron microscopy immediately after mixing)
Cl.NCCCC[C@H](N)C(=O)O [L-Lysine, L-Lysine, monohydrochloride, reference compound]	not effective		
Poly-L-Lysine, hydrobomide	completely dissolved	also observed	instantaneous
